PubChem BioAssay AID1918996 (Molecular Pharmacology Branch, DTP, NCI, 2023)

System: 349418-098-R-PDC complex spheroid growth
Assay: Anticancer human tumor 349418-098-R-PDC patient-derived lung adenocarcinoma cell line growth inhibition [AhR]
Settings: for IC50: curve of first compound; for viability, T/C: stronger effect = lower value
Summary of the method: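 Spheroids combined tumor cells with HUVEC endothelial cells and human MSCs as stroma. AhR antagonists were paired with standard or investigational drugs, each dosed in half-log steps down from near clinical Cmax, or from 10 microM where Cmax was unknown.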

[1] = second compound 0.1 µM, first compound 0.0316 µM
[2] = second compound 0.1 µM, first compound 0.1 µM
[3] = second compound 0.1 µM, first compound 0.316 µM
[4] = second compound 0.1 µM, first compound 1 µM
[5] = second compound 0.316 µM, first compound 0.0316 µM
[6] = second compound 0.316 µM, first compound 0.1 µM
[7] = second compound 0.316 µM, first compound 0.316 µM
[8] = second compound 0.316 µM, first compound 1 µM
[9] = second compound 1 µM, first compound 0.0316 µM
[10] = second compound 1 µM, first compound 0.1 µM
[11] = second compound 1 µM, first compound 0.316 µM
[12] = second compound 1 µM, first compound 1 µM
[13] = second compound 3.16 µM, first compound 0.0316 µM
[14] = second compound 3.16 µM, first compound 0.1 µM
[15] = second compound 3.16 µM, first compound 0.316 µM
[16] = second compound 3.16 µM, first compound 1 µM
[17] = second compound 10 µM, first compound 0.0316 µM
[18] = second compound 10 µM, first compound 0.1 µM
[19] = second compound 10 µM, first compound 0.316 µM
[20] = second compound 10 µM, first compound 1 µM
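Further: spheroids exposed to agents for seven days before luminescence viability read.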

In the case of `CC1COCCN1c1cc(-c2ccnn2C)c2ccnc(-c3ccn[nH]3)c2n1` (stereo not given) + CC(CO)NC(=O)c1cc(-c2ccc(Cl)cc2)nn(-c2cnn(C)c2)c1=O, the IC50 (second compound 0.1 µM) is reported as 79.1 nM, the IC50 (second compound 0.316 µM) is reported as 68.8 nM and the IC50 (second compound 1 µM) is reported as 82.3 nM. The IC50 (second compound 3.16 µM) was 67.4 nM, the IC50 (second compound 10 µM) was 52.9 nM and the viability, T/C (second compound 0.1 µM, first compound 0.00316 µM) was 90.3%. It also gave a viability, T/C (second compound 0.1 µM, first compound 0.01 µM) of 99.2%, a viability, T/C [1] of 81.9% and a viability, T/C [2] of 41.9%. For the same compound, the viability, T/C [3] was 14.2%, the viability, T/C [4] was 10.3% and the viability, T/C (second compound 0.316 µM, first compound 0.00316 µM) was 87.4%. It also gave a viability, T/C (second compound 0.316 µM, first compound 0.01 µM) of 92.3%, a viability, T/C [5] of 89.1% and a viability, T/C [6] of 31.2%. The viability, T/C [7] was 15.8%, the viability, T/C [8] was 9.1% and the viability, T/C (second compound 1 µM, first compound 0.00316 µM) was 112%. The viability, T/C (second compound 1 µM, first compound 0.01 µM) was 128%, the viability, T/C [9] was 91.6% and the viability, T/C [10] was 42.2%. The viability, T/C [11] was 16.6%, the viability, T/C [12] was 10.9% and the viability, T/C (second compound 3.16 µM, first compound 0.00316 µM) was 67.7%. The viability, T/C (second compound 3.16 µM, first compound 0.01 µM) was 96.1%, the viability, T/C [13] was 85.3% and the viability, T/C [14] was 32.8%. The viability, T/C [15] was 15.8%, the viability, T/C [16] was 12% and the viability, T/C (second compound 10 µM, first compound 0.00316 µM) was 62.8%. It also gave a viability, T/C (second compound 10 µM, first compound 0.01 µM) of 94%, a viability, T/C [17] of 69.1% and a viability, T/C [18] of 25.2%. The viability, T/C [19] was 14.2% and the viability, T/C [20] was 10.1%.
Compound `CC1COCCN1c1cc(C2(S(C)(=N)=O)CC2)nc(-c2ccnc3[nH]ccc23)n1` (stereo not given) + CC(CO)NC(=O)c1cc(-c2ccc(Cl)cc2)nn(-c2cnn(C)c2)c1=O has an IC50 (second compound 0.1 µM) of 1530 nM, an IC50 (second compound 0.316 µM) of 1710 nM and an IC50 (second compound 1 µM) of 1410 nM. It also gave an IC50 (second compound 3.16 µM) of 750 nM, an IC50 (second compound 10 µM) of 1270 nM and a viability, T/C [1] of 84.5%. For the same compound, the viability, T/C [2] was 71.8%, the viability, T/C [3] was 69.6% and the viability, T/C [4] was 65.7%. It also gave a viability, T/C (second compound 0.1 µM, first compound 3.16 µM) of 24.4%, a viability, T/C (second compound 0.1 µM, first compound 10 µM) of 12.5% and a viability, T/C [5] of 70%. For the same compound, the viability, T/C [6] was 80.7%, the viability, T/C [7] was 66.8% and the viability, T/C [8] was 73.2%. It also gave a viability, T/C (second compound 0.316 µM, first compound 3.16 µM) of 24.2%, a viability, T/C (second compound 0.316 µM, first compound 10 µM) of 10.4% and a viability, T/C [9] of 67.6%. The viability, T/C [10] was 89.1%, the viability, T/C [11] was 85.2% and the viability, T/C [12] was 59%. For the same compound, the viability, T/C (second compound 1 µM, first compound 3.16 µM) was 25.7%, the viability, T/C (second compound 1 µM, first compound 10 µM) was 12.5% and the viability, T/C [13] was 83.9%. It also gave a viability, T/C [14] of 55.9%, a viability, T/C [15] of 78.9% and a viability, T/C [16] of 42.4%. It also gave a viability, T/C (second compound 3.16 µM, first compound 3.16 µM) of 21.4%, a viability, T/C (second compound 3.16 µM, first compound 10 µM) of 13.4% and a viability, T/C [17] of 59.1%. The viability, T/C [18] was 56.9%, the viability, T/C [19] was 59.8% and the viability, T/C [20] was 57.7%. The viability, T/C (second compound 10 µM, first compound 3.16 µM) was 20.2% and the viability, T/C (second compound 10 µM, first compound 10 µM) was 11.7%.
